Melting point data for 62 compounds are collected here from a melting point compilation (Tetko et al.; mined from patent text by program, amines drawn as free bases though some values may be those of a salt).

`CC(=O)OC1(C(C)=O)CCC2C3C=CC4=CC(=O)CCC4(C)C3C(F)CC21C` (configuration not stated) came in with a melting point of 220 to 222 °C.
`CNc1ccc(F)c2c1C(=O)c1ccccc1-2`: the melting point is 139 to 144 °C.
Compound `COc1cc2c(Nc3ccc(Cl)cc3F)ncnc2cc1OCCOc1cccnc1` came in with a melting point of 188 to 190 °C.
`CCOc1ccccc1C1(CC(=O)N2CCN(c3ccncc3)CC2)C(=O)N(S(=O)(=O)c2ccc(OC)cc2OC)c2ccc(Cl)cc21` (configuration not stated) yielded a melting point of 225 °C.
For the compound `COc1cc(N)c(Cl)cc1C(=O)NC1CCN(CC2CCN(C(C)C(C)=O)CC2)CC1` (configuration not stated), the melting point was in the range of 268 to 270 °C.
On to `CCC1CCCC(C)C1=NC(C)COC` (configuration not stated), for which the melting point lay within 109 to 113 °C.
In the case of `CCN(CC)C(=O)Nc1ccc(S(=O)(=O)N2C(=O)C(N)(c3ccccc3Cl)c3cc(Cl)ccc32)cc1` (configuration not stated), the melting point was in the range of 195 to 196 °C.
Consider `CC12CCC(OS(=O)(=O)C(F)(F)F)=CC1=CCC1C2CCC2(C)C(C(=O)N(C(=S)NC3CCCCC3)C3CCCCC3)CCC12` (configuration not stated), for which the melting point was in the range of 123 to 124 °C.
`O=C1ONCC12CCOc1ccc(F)cc12` (configuration not stated) gave a melting point of 153 to 155 °C.
The compound `Cc1nc(Cl)c2cc(C)oc2n1` gave a melting point of 47.6 to 48.1 °C.
The result for `CC(=O)OC1CCC2(C)C(=CC(=O)C3C2CCC2(C)C(C(C)CCCC(C)C)CCC32)C1` (configuration not stated) reads 151 to 154 °C.
Turning to `Cc1ccc(C2=NN=CNC2C)cc1` (configuration not stated), the melting point was found to be 246 °C.
`O=S(=O)(c1ccccc1)n1c(Sc2cc(Cl)cc(Cl)c2)cc2cc(Cl)ccc21` registered a melting point of 121 to 122 °C.
For `CN(C)C(=O)c1ccccc1-c1ccc(C(=O)N2Cc3ccc(C(=O)NCc4cccnc4)n3Cc3ccccc32)cc1` the value was 206 to 207 °C.
For `CCc1cnc2c(c1)ON(C(C)(C(N)=O)C(C)C)O2` (configuration not stated) the value was 114 to 117 °C; for `COc1ccc2c(c1OCc1ccccc1)CCN(C(C)=O)C2`, 94 to 95 °C; for `CCOC(=O)CCNC(=O)n1nc(Oc2c(Cl)cc(C(F)(F)F)cc2Cl)cc1C`, 73 to 74 °C.
Compound `CCC(O)c1cc(C2(c3cccc(-c4cccnc4F)c3)N=C(N)N(C)C2=O)cn1CC` (configuration not stated) returned a melting point of 115 to 121 °C.
`O=C(Nc1ccc2[nH]ccc2c1)c1ccco1` registered a melting point of 181 to 182 °C.
`O=C(O)CCc1c(C=C2C(=O)Nc3ccc(Br)cc32)[nH]c2c1CCCC2` returned a melting point of 286 to 289 °C.
In the case of `O=C=Nc1ccc(Oc2cccc(Cl)n2)cc1`, the melting point was 96 to 97 °C.
As for `Cc1ccc(S(=O)(=O)NN=C2C(=O)Nc3cccc(Cl)c32)cc1`, the melting point is 195 to 196 °C.
Turning to `COC(=O)C1=C(C)NC(C)=C(S(=O)(=O)c2ccc(O)cc2)C1c1ccccc1Cl` (configuration not stated), the melting point was in the range of 223 to 225 °C.
As for `CCCCC1=C(C)C=NC1=O`, the melting point lay in the range of 95 to 97 °C.
Turning to `COc1cc(C=CC(=O)Nc2c(CCO)nc3c(C)cc(C)cc3c2-c2ccccc2Cl)ccc1O`, the melting point fell in the range of 133 to 134 °C.
Compound `CCOC(=O)CNS(=O)(=O)C(F)(F)F` showed a melting point of 73 to 75 °C.
`CC(C)(Nc1ccc(OCc2ccccc2)cc1)C(=O)O` had a melting point of 210 °C.
In turn, `O=C1NC(=O)c2c1cc1ccc3c(c1c2-c1ccc(F)cc1)OCO3` gave a melting point of 269 to 271 °C.
Regarding `N#CCCCc1ccccc1CC1C(=O)CCCC1=O`, the melting point turned out to be 143 °C.
In turn, `NS(=O)(=O)NCC1CCc2ccccc2O1` (configuration not stated) displayed a melting point of 100 to 101 °C.
`Cc1cc(C(=O)NCCO)ncc1C(c1cc(F)ccc1F)S(=O)(=O)c1cc(F)cc(F)c1` (configuration not stated) displayed a melting point of 82 to 84 °C.
`O=[N+]([O-])c1ccc(NS(=O)(=O)c2ccc(Cl)c(Cl)c2)c(Cl)c1`: the melting point was in the range of 199 to 201 °C.
As to `CNS(=O)(=O)Oc1ccccc1`, the melting point was 43 to 45 °C.
For `CCCc1nc2c(N)nc3cc(OC)ccc3c2s1` the value was 152 to 154 °C.
In turn, `CSc1nnc(SCC(=O)C23CC4CC(CC(C4)C2)C3)s1` registered a melting point of 134 to 135 °C.
Compound `N[C@@H](Cc1cccc(OCC(F)(F)C(F)F)c1)[C@H](O)c1ccc(F)cc1` (racemic) yielded a melting point of 77 to 78 °C.
Turning to `CS(=O)(=O)c1ccc(-c2cnn(-c3ccc(F)cc3)c(=O)c2Cc2ccccc2)cc1`, the melting point was in the range of 180 to 182 °C.
Compound `O=C(NC1C(=O)N(CC23CC4CC(CC(C4)C2)C3)c2ccccc2N(c2ccccc2)C1=O)Oc1ccccc1` (configuration not stated) registered a melting point of 205 to 207 °C.
Regarding `O=C(O)CCCc1cc2nc(Cl)ccc2n1S(=O)(=O)c1ccc2c(c1)OCCO2`, the melting point is 166 °C.
`O=[N+]([O-])c1ccc2[nH]c(C(F)(F)F)c([N+](=O)[O-])c2c1` came in with a melting point of 225 to 228 °C.
Regarding `CCOC(=O)C=Cc1ccc(OCc2ccccn2)cc1`, the melting point was determined as 95 °C.
The result for `CC(CO)n1nnc2cc3c(=O)n(C(C)Cn4ncnn4)nnc3cc2c1=O` (configuration not stated) reads 153 to 154 °C; that for `COC(=O)COC(=O)C(Cc1cc(=O)[nH]c2ccccc12)NC(=O)c1ccc(Cl)cc1` (configuration not stated), 202 to 204 °C.
Take `CCCOc1ccccc1-c1ncc(NC(C)=O)c(=O)[nH]1`: the melting point was 195 to 197 °C.
Regarding `CCCCSc1cc([N+](=O)[O-])cc(C(O)=NC)c1C(=O)O`, the melting point fell in the range of 106 to 108 °C.
In the case of `Cc1ccc(CSc2nc3cc4c(cc3[nH]2)C(C)(C)CCC4(C)C)nc1`, the melting point fell in the range of 187 to 188 °C.
`CC(C)(C)C(=O)OC1CC(=O)C2(C)CCC3C(CCC4=CC(=O)CCC43C)C12` (configuration not stated) registered a melting point of 148 to 150 °C.
As for `Cc1nn(-c2ccccn2)cc1COc1ccc(CC(=O)O)cc1`, the melting point lay in the range of 161 to 162 °C.
Take `CN(C)Cc1cc2c(s1)Oc1ccccc1N=C2N1CCN(C)CC1`: the melting point was in the range of 188 to 189 °C.
The compound `COc1ccc(N2CCOCC2)c2sc(C(=O)NCC(=O)c3ccccc3)nc12` had a melting point of 165 °C.
For `Cn1ncc(C(=O)N2CCOCC2)c1C(=O)Nc1cc2nc(-c3ccccc3)nn2cc1F` the value was 224 to 225 °C.
`NS(=O)(=O)c1ccc(NN=C2C(=O)Nc3ccc(C(=O)NCc4ccco4)cc32)cc1` yielded a melting point of more than 250 °C.
For the compound `CCOC(=O)[C@](CC(=O)OC1CC(C)CCC1C(C)C)(NC(=O)OCc1ccccc1)C(N)=O` (some centres not stated), the melting point amounted to 124 °C.
Turning to `CC1(C2C(=O)N(CC(F)(F)F)c3ccccc32)OCCO1` (configuration not stated), the melting point lay in the range of 87 to 89 °C.
`C/C(=C\c1ccc(C(=O)O)cc1)c1ccc2c(c1)C(C)(C)C(O)CC2(C)C` (configuration not stated): the melting point lay in the range of 250 to 252 °C.
Regarding `CCCCCCCCCCCCCCCCCC(=O)NC(C)c1c[nH]c(CCCCCCCCCCCCCCCCC)n1` (configuration not stated), the melting point lay in the range of 76 to 82 °C.
The compound `CCOC(=O)C1=C(C)NC(C)=C(C(=O)OCC)C1c1ccccc1OCc1ccccc1` had a melting point of 134 to 136 °C.
For `Cc1c(-c2cc([N+](=O)[O-])c(F)cc2F)ncnc1C(F)F`, the melting point fell in the range of 85 to 86 °C.
Compound `O=C(O)CCC(=O)c1ccc(N2CCOCC2)cc1` had a melting point of 167 to 168 °C.
Regarding `CCc1cc(C(=O)OC)n(C)n1`, the melting point lay in the range of 162 to 165 °C.
Turning to `Brc1ccc(-c2nc(-c3cccc(Br)c3)n(-c3ccccc3)n2)cc1`, the melting point lay in the range of 129 to 131 °C.
Turning to `Nc1ccc(Oc2ccccc2OCc2ccccc2)cc1`, the melting point lay within 111 to 112 °C.

As usually defined, the melting point is the temperature, or range, at which the solid turns liquid.
